Laboratory results as given in US20110070232A1, “Combination Therapy with an Antitumor Alkaloid” (Pharma Mar, S.A., priority 2008, published 2011).
Read-outs that look alike come from different tables or passages of the source.

How the values were obtained:
HepG2 tumors = assay type: in vivo, mice
Method: Female athymic nude mice (Harlan Sprague Dawley, Madison, Wis.) were utilized for all experiments. Animals were housed in ventilated rack caging with food and water ad libitum. The mice were acclimated for at least 5 days prior to tumor implantation with a tumor cell suspension.
The tumor model used in these studies was HepG2 cell line, which was obtained from the ATCC (Manassas, Va.).
HepG2 cells were grown in MEM supplemented with 10% FBS, 1.5 g/L sodium bicarbonate, 0.1 mM non-essential amino acids, 1.0 mM sodium pyruvate, and 2 mM L-glutamine. Each animal was implanted SC on the right flank, using a 13G trochar, with 5×10^6 HepG2 cells in a 0.2 mL suspension of 50% Matrigel and 50% serum free medium, without antibiotics. Bacterial cultures were performed on aliquots of the cells prepared for implantation.
Treatments were initiated on DPI 19.
(§1) Tumor size measurements were recorded twice weekly from the treatment initiation until the termination of the study.
(§2) Mean, standard deviation and standard error of the mean were determined for tumor volume for all animal groups at all assessments. Student's t test was performed on tumor volumes at each measurement day, including at the end of the study, to determine whether there were any statistically significant differences between combination treatment groups and single monotherapy treatment groups.

H-Meso-1 tumors = assay type: in vivo, mice; details: G2 PM00104 0.9 mg/kg/day IV
Method: Female athymic nude mice (Harlan Sprague Dawley, Madison, Wis.) were utilized for all experiments. Animals were housed in ventilated rack caging with food and water ad libitum. The mice were acclimated for at least 5 days prior to tumor implantation.
The tumor model used in this study was H-Meso-1 cell line which is a human mesothelioma cell line obtained from the DTP, DCTD tumor repository. […] Cells were implanted SC into study mice using a 1 ml syringe with a 13G trocar: 5×10^6 cells/mouse in 0.2 ml 50% Matrigel/50% RPMI medium of H-Meso-1 without serum or antibiotics. Bacterial culture was taken on cells used to implant the study.
Treatments were initiated on DPI 6.
Tumor size measurements were recorded 2-3 times/week from the treatment initiation until the termination of the study.
as §2

MRI-H-254 tumors = assay type: in vivo, mice
Method: Female athymic nude mice (Harlan Sprague Dawley, Madison, Wis.) were utilized for all experiments. Animals were housed in ventilated rack caging with food and water ad libitum. The mice were acclimated for at least 5 days prior to tumor implantation with tumor fragments.
Bacterial culture was taken on cells used to implant the study.
Treatments were initiated on DPI 20.
5-FU was provided in the form of injection vials which was diluted with 0.9% sterile Saline.
as §1, §2

[1] = tested on: HCT-116 (colon cancer) cell line; test: IC50 determination, MIT (tetrazolium) assay, 72 h (Example 18); assay type: cell-based, human; details: Homo sapiens; HCT-116, 72 hours of drug exposure
Method: HCT-116 cells were grown in McCoy's supplemented with 10% Fetal Bovine Serum (FBS), 1% penicillin/streptomycin and 2 mM L-glutamine.
Before plating, cell cultures were trypsinized and cell number estimated using an automated flow cytometer.
Cells were harvested and seeded in 96 well microtiter plates at the appropriate cell density (5,000-10,000 cells) in 150 μL of media and incubated for 24 hours to allow the cells to attach before drug addition.
After the incubation period (72 hours), 50 μL of MIT solution was added to each microtiter well and incubated for further 8 hours at 37° C. The culture medium was then removed and 50 μl, of DMSO were added to dissolve the MIT crystals. Optical densities were read at 540 nm on spectrophotometer microplate reader.
IC50 values were calculated from an average of two to four assays for each of the test agents.

[2] = day 19, PM00104 0.60, sorafenib 60 mg/kg/day
[3] = day 19, PM00104 0.90, sorafenib 60 mg/kg/day
[4] = day 22, PM00104 0.60, sorafenib 60 mg/kg/day
[5] = day 22, PM00104 0.90, sorafenib 60 mg/kg/day
[6] = day 26, PM00104 0.60, sorafenib 60 mg/kg/day
[7] = day 26, PM00104 0.90, sorafenib 60 mg/kg/day
[8] = day 30, PM00104 0.60, sorafenib 60 mg/kg/day
[9] = day 30, PM00104 0.90, sorafenib 60 mg/kg/day
[10] = day 33, PM00104 0.60, sorafenib 60 mg/kg/day
[11] = day 33, PM00104 0.90, sorafenib 60 mg/kg/day
[12] = PM00104 0.90 IV, 5-FU 100 IP mg/kg/day (G2, G3, G5), DPI 20, 27, 34

COc1c(C)cc2c(c1O)[C@@H]1[C@@H]3Cc4c(OC(C)=O)c(C)c5c(c4[C@H](CNC(=O)/C=C/c4cccc(C(F)(F)F)c4)N3[C@@H](O)[C@H](C2)N1C)OCO5 [PM00104]
% Inhibition (HepG2 tumors; day 19, PM00104 0.60, sorafenib 30 mg/kg/day): 8.4%
% Inhibition (HepG2 tumors; [2]): 8.4%
% T/C (HepG2 tumors; [2]): 91.6%
% Inhibition (HepG2 tumors; day 19, PM00104 0.90, sorafenib 30 mg/kg/day): 8.5%
% Inhibition (HepG2 tumors; [3]): 8.5%
% T/C (HepG2 tumors; [3]): 91.5%
% Inhibition (HepG2 tumors; day 22, PM00104 0.60, sorafenib 30 mg/kg/day): 28.1%
% Inhibition (HepG2 tumors; [4]): 28.1%
% T/C (HepG2 tumors; [4]): 71.9%
% Inhibition (HepG2 tumors; day 22, PM00104 0.90, sorafenib 30 mg/kg/day): 40.3%
% Inhibition (HepG2 tumors; [5]): 40.3%
% T/C (HepG2 tumors; [5]): 59.7%
% Inhibition (HepG2 tumors; day 26, PM00104 0.60, sorafenib 30 mg/kg/day): 48.3%
% Inhibition (HepG2 tumors; [6]): 48.3%
% T/C (HepG2 tumors; [6]): 51.7%
% Inhibition (HepG2 tumors; day 26, PM00104 0.90, sorafenib 30 mg/kg/day): 59.5%
% Inhibition (HepG2 tumors; [7]): 59.5%
% T/C (HepG2 tumors; [7]): 40.5%
% Inhibition (HepG2 tumors; day 30, PM00104 0.60, sorafenib 30 mg/kg/day): 59.2%
% Inhibition (HepG2 tumors; [8]): 59.2%
% T/C (HepG2 tumors; [8]): 40.8%
% Inhibition (HepG2 tumors; day 30, PM00104 0.90, sorafenib 30 mg/kg/day): 76.1%
% Inhibition (HepG2 tumors; [9]): 76.1%
% T/C (HepG2 tumors; [9]): 23.9%
% Inhibition (HepG2 tumors; day 33, PM00104 0.60, sorafenib 30 mg/kg/day): 62.4%
% Inhibition (HepG2 tumors; [10]): 62.4%
% T/C (HepG2 tumors; [10]): 37.6%
% Inhibition (HepG2 tumors; day 33, PM00104 0.90, sorafenib 30 mg/kg/day): 73.0%
% Inhibition (HepG2 tumors; [11]): 73.0%
% T/C (HepG2 tumors; [11]): 27.0%
% T/C on day 6 (H-Meso-1 tumors): 98.5%
% T/C on day 7 (H-Meso-1 tumors): 80.3%
% T/C on day 9 (H-Meso-1 tumors): 69.7%
% T/C on day 12 (H-Meso-1 tumors): 63.3%
% T/C on day 14 (H-Meso-1 tumors): 62.9%
% T/C on day 16 (H-Meso-1 tumors): 62.1%
% T/C on day 19 (H-Meso-1 tumors): 55.1%
% T/C on day 22 (H-Meso-1 tumors): 51.6%
% T/C on day 26 (H-Meso-1 tumors): 56.0%
% T/C on day 29 (H-Meso-1 tumors): 64.9%
% Inhibition (H-Meso-1 tumors; day 6): 1.5%
% Inhibition (H-Meso-1 tumors; day 7): 19.7%
% Inhibition (H-Meso-1 tumors; day 9): 30.3%
% Inhibition (H-Meso-1 tumors; day 12): 36.7%
% Inhibition (H-Meso-1 tumors; day 14): 37.1%
% Inhibition (H-Meso-1 tumors; day 16): 37.9%
% Inhibition (H-Meso-1 tumors; day 19): 44.9%
% Inhibition (H-Meso-1 tumors; day 22): 48.4%
% Inhibition (H-Meso-1 tumors; day 26): 44.0%
% Inhibition (H-Meso-1 tumors; day 29): 35.0%
% T/C on day 20 (MRI-H-254 tumors; [12]): 98.7%
% T/C on day 23 (MRI-H-254 tumors; [12]): 95.9%
% T/C on day 26 (MRI-H-254 tumors; [12]): 83.7%
% T/C on day 30 (MRI-H-254 tumors; [12]): 75.3%
% T/C on day 34 (MRI-H-254 tumors; [12]): 53.1%
% T/C on day 36 (MRI-H-254 tumors; [12]): 46.5%
% T/C on day 43 (MRI-H-254 tumors; [12]): 26.9%
% T/C on day 49 (MRI-H-254 tumors; [12]): 36.7%
% T/C on day 56 (MRI-H-254 tumors; [12]): 50.6%
% T/C on day 63 (MRI-H-254 tumors; [12]): 81.3%
% Inhibition (MRI-H-254 tumors; day 20, PM00104 0.9 and 5-FU 50 mg/kg/day): 1.3%
% Inhibition (MRI-H-254 tumors; day 20, PM00104 0.9 and 5-FU 100 mg/kg/day): 1.3%
% Inhibition (MRI-H-254 tumors; day 23, PM00104 0.9 and 5-FU 50 mg/kg/day): 4.1%
% Inhibition (MRI-H-254 tumors; day 23, PM00104 0.9 and 5-FU 100 mg/kg/day): 4.1%
% Inhibition (MRI-H-254 tumors; day 26, PM00104 0.9 and 5-FU 50 mg/kg/day): 16.3%
% Inhibition (MRI-H-254 tumors; day 26, PM00104 0.9 and 5-FU 100 mg/kg/day): 16.3%
% Inhibition (MRI-H-254 tumors; day 30, PM00104 0.9 and 5-FU 50 mg/kg/day): 24.7%
% Inhibition (MRI-H-254 tumors; day 30, PM00104 0.9 and 5-FU 100 mg/kg/day): 24.7%
% Inhibition (MRI-H-254 tumors; day 34, PM00104 0.9 and 5-FU 50 mg/kg/day): 46.9%
% Inhibition (MRI-H-254 tumors; day 34, PM00104 0.9 and 5-FU 100 mg/kg/day): 46.9%
% Inhibition (MRI-H-254 tumors; day 36, PM00104 0.9 and 5-FU 50 mg/kg/day): 53.5%
% Inhibition (MRI-H-254 tumors; day 36, PM00104 0.9 and 5-FU 100 mg/kg/day): 53.5%
% Inhibition (MRI-H-254 tumors; day 43, PM00104 0.9 and 5-FU 50 mg/kg/day): 73.1%
% Inhibition (MRI-H-254 tumors; day 43, PM00104 0.9 and 5-FU 100 mg/kg/day): 73.1%
% Inhibition (MRI-H-254 tumors; day 49, PM00104 0.9 and 5-FU 50 mg/kg/day): 63.3%
% Inhibition (MRI-H-254 tumors; day 49, PM00104 0.9 and 5-FU 100 mg/kg/day): 63.3%
% Inhibition (MRI-H-254 tumors; day 56, PM00104 0.9 and 5-FU 50 mg/kg/day): 49.4%
% Inhibition (MRI-H-254 tumors; day 56, PM00104 0.9 and 5-FU 100 mg/kg/day): 49.4%
% Inhibition (MRI-H-254 tumors; day 63, PM00104 0.9 and 5-FU 50 mg/kg/day): 18.7%
% Inhibition (MRI-H-254 tumors; day 63, PM00104 0.9 and 5-FU 100 mg/kg/day): 18.7%
IC50 [1]: 9 nM
